Measured values as given in patent publication US20260258044A1, “PIPERIDINYL-METHYL-PURINE AMINE FUMARIC ACID SALTS, CRYSTALLINE FORMS, AND THEIR USE IN TREATING MEDICAL DISEASES AND CONDITIONS” (K36 Therapeutics, Inc., priority 2022, published 2026).
“Also recorded” adds a separate entry of the source.

What was measured:
Format in all cases: physicochemical
[1] = water solubility of the crystalline solid; settings: 37° C.
[2] = hygroscopicity by dynamic vapor sorption; settings: transitioned from 2% to 95% relative humidity
Description: Dynamic vapor sorption was performed using a Q5000SA. The sample (5-15 mg) was loaded into a metallic quartz sample pan, suspended from a microbalance, and exposed to a humidified stream of nitrogen gas. Weight changes were relative to a matching empty reference pan opposite the sample, suspended from the microbalance. The sample was held for a minimum of 10 min at each humidity level and only progressed to the next humidity level if there was <0.002% change in weight between measurements (interval: 5 s) or 60 min had elapsed. The following program was used: • 1. Equilibration at 50% RH • 2. 50% to 2% RH (50%, 40%, 30%, 20%, 10%, and 2% RH) • 3. 2% to 95% RH (2%, 10%, 20%, 30%, 40%, 50%, 60%, 70%, 80%, 90%, and 95% RH) • 4. 95% to 2% RH (95%, 80%, 70%, 60%, 50%, 40%, 30%, 20%, 10%, and 2% RH) • 5. 2% to 50% RH (2%, 10%, 20%, 30%, 40%, and 50% RH).

[3] = accelerated stability study (HPLC and XRPD of recovered salts); settings: for HPLC Purity (Area %) After Study / XRPD After Study: after one week at 75% relative humidity, 40° C.; for HPLC Purity (Area %) Before Study: before storage
Description: An accelerated stability study was conducted on crystalline Form 1 (prepared according to Procedure 2 of Example 1), Form 2, Form 3 (prepared according to Procedure 1 of Example 3), and Form 4 of (S)-1-((R)-3-amino-1-(4-((6-amino-9H-purin-9-yl)methyl)-6-(2,5-difluoro-4-methoxyphenyl) pyridin-3-yl)piperidin-3-yl)-2,2-difluoroethan-1-ol fumaric acid salt. Approximately 12 mg of each solid was placed into separate 4-mL vials, and then the vials were covered with a Kimwipe. The vials were stored for one week inside a stability chamber producing a relative humidity of 75% at 40° C.

COc1cc(F)c(-c2cc(Cn3cnc4c(N)ncnc43)c(N3CCC[C@](N)([C@H](O)C(F)F)C3)cn2)cc1F.O=C(O)/C=C/C(=O)O [Form 3, (S)-1-((R)-3-amino-1-(4-((6-amino-9H-purin-9-yl)methyl)-6-(2,5-difluoro-4-methoxyphenyl)pyridin-3-yl)piperidin-3-yl)-2,2-difluoroethan-1-ol Fumaric Acid Salt]
water solubility ([1]; after 30 minutes): 800 µg/mL
water solubility ([1]; after 24 hours): 700 µg/mL
increase in weight [2]: 5.1%
increase in weight as molar equivalents of water [2]: approximately 1.8 molar equivalents
HPLC Purity (Area %) After Study [3]: 99.56 Area %
XRPD After Study [3]: Increased crystallinity; also recorded: Higher Crystallinity
HPLC Purity (Area %) Before Study [3]: 99.58 Area %

COc1cc(F)c(-c2cc(Cn3cnc4c(N)ncnc43)c(N3CCC[C@](N)([C@H](O)C(F)F)C3)cn2)cc1F.O=C(O)/C=C/C(=O)O [Form 1, (S)-1-((R)-3-amino-1-(4-((6-amino-9H-purin-9-yl)methyl)-6-(2,5-difluoro-4-methoxyphenyl)pyridin-3-yl)piperidin-3-yl)-2,2-difluoroethan-1-ol Fumaric Acid Salt]
water solubility ([1]; after 30 minutes): 300 µg/mL
water solubility ([1]; after 24 hours): 1400 µg/mL
increase in weight [2]: 1.5%
HPLC Purity (Area %) After Study [3]: 99.52 Area %
XRPD After Study [3]: No change; also recorded: Unchanged
HPLC Purity (Area %) Before Study [3]: 99.50 Area %

COc1cc(F)c(-c2cc(Cn3cnc4c(N)ncnc43)c(N3CCC[C@](N)([C@H](O)C(F)F)C3)cn2)cc1F.O=C(O)/C=C/C(=O)O [Form 2, (S)-1-((R)-3-amino-1-(4-((6-amino-9H-purin-9-yl)methyl)-6-(2,5-difluoro-4-methoxyphenyl)pyridin-3-yl)piperidin-3-yl)-2,2-difluoroethan-1-ol Fumaric Acid Salt]
water solubility ([1]; after 30 minutes): 2200 µg/mL
water solubility ([1]; after 24 hours): 1100 µg/mL
HPLC Purity (Area %) After Study [3]: 99.49 Area %
XRPD After Study [3]: Slight shifting of peaks at higher diffraction angles (2θ); also recorded: Slight Shifting of Certain
HPLC Purity (Area %) Before Study [3]: 99.51 Area %

COc1cc(F)c(-c2cc(Cn3cnc4c(N)ncnc43)c(N3CCC[C@](N)([C@H](O)C(F)F)C3)cn2)cc1F.O=C(O)/C=C/C(=O)O [Form 4, (S)-1-((R)-3-amino-1-(4-((6-amino-9H-purin-9-yl)methyl)-6-(2,5-difluoro-4-methoxyphenyl)pyridin-3-yl)piperidin-3-yl)-2,2-difluoroethan-1-ol Fumaric Acid Salt]
water solubility ([1]; after 30 minutes): 700 µg/mL
water solubility ([1]; after 24 hours): 600 µg/mL
increase in weight [2]: 5.5%
increase in weight as molar equivalents of water [2]: approximately 2.0 molar equivalents
HPLC Purity (Area %) After Study [3]: 99.59 Area %
XRPD After Study [3]: Conversion to Form 3
HPLC Purity (Area %) Before Study [3]: 99.56 Area %
